From patent US20150307938A1, “METHOD TO IDENTIFY A NOVEL CLASS OF IMMUNOLOGIC ADJUVANTS” (Lancell, L.L.C., priority 2011, published 2015)

System: skin
Assay: Affymetrix microarray of skin, DBP-4 hr and analogs vs. untreated; gene selection by log-2 fold change, Wilcoxon, Kendall tau (Tables 8, 9)
Format: in vivo, mouse
Conditions: DBP-4 hr

CCCCOC(=O)c1ccccc1C(=O)OCCCC [DBP, dibutylphthalate]
DBP Expression: Nr4a2 (NM_013613_at): 7.45 | DBP Expression: Ccl7 (NM_013654_at): 8.86 | DBP Expression: Plk3 (NM_013807_at): 8.72 | DBP Expression: Bcar3 (NM_013867_at): 7.96 | DBP Expression: Clic4 (NM_013885_at): 9.05 | DBP Expression: Rgs1 (NM_015811_at): 7.35 | DBP Expression: Aqp3 (NM_016689_at): 10.49 | DBP Expression: Map3k6 (NM_016693_at): 8.79 | DBP Expression: Krt35 (NM_016880_at): 5.45 | DBP Expression: Ccl20 (NM_016960_at): 11.11 | DBP Expression: Nfil3 (NM_017373_at): 8.13 | DBP Expression: Arc (NM_018790_at): 6.81 | DBP Expression: Cd86 (NM_019388_at): 7.42 | DBP Expression: Nfkb2 (NM_019408_at): 8.26 | DBP Expression: Ramp3 (NM_019511_at): 7.94 | DBP Expression: Pde4b (NM_019840_at): 8.96 | DBP Expression: Clec7a (NM_020008_at): 9.14 | DBP Expression: Angptl4 (NM_020581_at): 9.51 | DBP Expression: Pmaip1 (NM_021451_at): 8.41 | DBP Expression: Gpr35 (NM_022320_at): 5.63 | DBP Expression: Ptges (NM_022415_at): 8.31 | DBP Expression: Cxcl16 (NM_023158_at): 8.99 | DBP Expression: Zfp593 (NM_024215_at): 6.14 | DBP Expression: Pqlc1 (NM_025861_at): 10.20 | DBP Expression: Efhd2 (NM_025994_at): 10.57 | DBP Expression: Slc39a8 (NM_026228_at): 6.13 | DBP Expression: Dusp6 (NM_026268_at): 10.59 | DBP Expression: 1810011010Rik (NM_026931_at): 9.68 | DBP Expression: Pvr (NM_027514_at): 6.71 | DBP Expression: 1810055G02Rik (NM_028077_at): 8.40 | DBP Expression: Rnf19b (NM_029219_at): 8.99 | DBP Expression: Slc10a6 (NM_029415_at): 9.28 | DBP Expression: Abcc3 (NM_029600_at): 7.87 | DBP Expression: 1600029D21Rik (NM_029639_at): 10.16 | DBP Expression: Klrb 1b (NM_030599_at): 6.58 | DBP Expression: Il6 (NM_031168_at): 6.41 | DBP Expression: Bcl3 (NM_033601_at): 8.92 | DBP Expression: Epgn (NM_053087_at): 9.09 | DBP Expression: Otud7a (NM_130880_at): 7.23 | DBP Expression: Ier3 (NM_133662_at): 11.24 | DBP Expression: Prss22 (NM_133731_at): 7.96 | DBP Expression: Errfi1 (NM_133753_at): 10.14 | DBP Expression: Uap1 (NM_133806_at): 9.16 | DBP Expression: Stk17b (NM_133810_at): 9.70 | DBP Expression: Havcr2 (NM_134250_at): 7.20 | DBP Expression: Cytip (NM_139200_at): 9.90 | DBP Expression: Slc39a14 (NM_144808_at): 6.31 | DBP Expression: Cd207 (NM_144943_at): 10.32 | DBP Expression: Pyy (NM_145435_at): 9.16 | DBP Expression: Deptor (NM_145470_at): 9.12 | DBP Expression: Smox (NM_145533_at): 8.07 | DBP Expression: Arid5a (NM_145996_at): 7.61 | DBP Expression: Slc25a25 (NM_146118_at): 8.10 | DBP Expression: Kctd11 (NM_153143_at): 9.35 | DBP Expression: Dusp7 (NM_153459_at): 8.85 | DBP Expression: Adamts4 (NM_172845_at): 6.21 | DBP Expression: Fam43a (NM_177632_at): 9.07 | DBP Expression: Coro2a (NM_178893_at): 7.02 | DBP Expression: Gyk (NM_212444_at): 9.63 | DBP Expression: Il4ra (NM_001008700_at): 7.47 | DBP Expression: Il1rl1 (NM_001025602_at): 8.40 | DBP Expression: Zbtb16 (NM_001033324_at): 6.93 | DBP Expression: Deptor (NM_001037937_at): 9.12 | DBP Expression: Cd44 (NM_001039150_at): 9.82 | DBP Expression: Cd44 (NM_001039151_at): 9.82 | DBP Expression: Irs2 (NM_001081212_at): 8.35 | DBP Expression: Pprc1 (NM_001081214_at): 8.81 | DBP Expression: Gpr35 (NM_001104529_at): 5.63 | DBP Expression: Crem (NM_001110850_at): 6.91 | DBP Expression: Crem (NM_001110853_at): 6.26 | DBP Expression: Crem (NM_001110854_at): 6.91 | DBP Expression: Crem (NM_001110855_at): 6.91 | DBP Expression: Crem (NM_001110856_at): 6.91 | DBP Expression: Crem (NM_001110857_at): 6.26 | DBP Expression: Crem (NM_001110858_at): 6.26 | DBP Expression: Crem (NM_001110859_at): 6.26 | DBP Expression: Slc39a8 (NM_001135149_at): 6.13 | DBP Expression: Slc39a8 (NM_001135150_at): 6.13 | DBP Expression: Slc39a14 (NM_001135151_at): 6.31 | DBP Expression: Slc39a14 (NM_001135152_at): 6.31 | DBP Expression: Nr4a2 (NM_001139509_at): 7.45 | DBP Expression: Ccl20 (NM_001159738_at): 11.11 | DBP Expression: Slc25a25 (NM_001164357_at): 8.10 | DBP Expression: Slc25a25 (NM_001164358_at): 8.10 | DBP Expression: Pqlc1 (NM_001164420_at): 10.20 | DBP Expression: Pqlc1 (NM_001164421_at): 10.20 | DBP Expression: Pqlc1 (NM_001164422_at): 10.20 | DBP Expression: Coro2a (NM_001164804_at): 7.02 | DBP Expression: Tnfaip3 (NM_001166402_at): 7.22
